The text below walks through data of patent US20100222269A1, “IMPROVED DERIVATIVES OF AMYLIN” (priority 2007, published 2010).

The test deals with T1, Amylin 3(a) receptor (human calcitonin receptor (CTa) with RAMP-3) (Homo sapiens, UniProt O60896+P30988).
T1 construct: expressed in transfected cells; host or cells: BHK570 (baby hamster kidney) cells, stably transfected, with CRE-luciferase reporter
The test can be described thus: Amylin luciferase assay (CRE-luciferase reporter in BHK Amylin 3(a)//CRE-luc cells). Type of test: cell-based. The text has this: It has previously been published (Poyner D R et al 2002, Pharmacological Reviews 54(2) 233-246) that activation of Amylin receptors (coexpression of Calcitonin receptor and receptor activity modifying peptides RAMPs) by Amylin leads to an increase in the intracellular concentration of cAMP. Consequently, transcription is activated at promotors containing multiple copies of the cAMP response element (CRE). It is thus possible to measure Amylin activity by use of a CRE luciferase reporter gene introduced into BHK cells also expressing an Amylin receptor.
2. Construction of an Amylin 3(a)/CRE-luc Cell Line
A BHK570 cell line stably transfected with the human calcitonin receptor (CTa) and a CRE-responsive luciferase reportergene. The cell line was further transfected with RAMP-3, using standard methods. This turns the Calcitonin receptor into an Amylin 3(a) receptor. Methotrexate, Neomycin, and Hygromycin are selection markers for luciferase, the Calcitonin receptor, and RAMP-3, respectively.
3. Amylin Luciferase Assay
To perform activity assays, BHK Amylin 3(a)//CRE-luc cells were seeded in white 96 well culture plates at a density of about 20.000 cells/well. The cells were in 100 μl growth medium (DMEM with 10% FBS, 1% Pen/Strep, 1 mM Na-pyruvate, 250 nM Methotrexate, 500 μg/ml Neomycin, and 400 μg/ml Hygromycin). After incubation overnight at 37° C. and 5% CO2, the growth medium was replaced by 50 μl/well assay medium (DMEM (without phenol red), Glumamax™, 10% FBS, and 10 mM Hepes, pH 7,4). Further, 50 μl/well of standard or sample in assay buffer were added. After 4 hours incubation at 37° C. and 5% CO2, the assay medium with standard or sample were removed and replaced by 100 μl/well PBS. Further, 100 μl/well LucLite™ was added. The plates were sealed and incubated at room temperature for 30 minutes. Finally, luminescence was measured on a TopCounter (Packard) in SPC (single photon counting) mode.

[1] abbreviates: BHK570 cells with human calcitonin receptor (CTa), RAMP-3 and CRE-luciferase reporter, 4 hours incubation, read-out: Potency luciferase assay.

pEC50: −log10 of the molar value. Read-outs that look alike come from different tables or passages of the source. Positions of bridges follow the written chain, without caps; N, C: chain ends. Residues, ends and D or L forms follow the SMILES beside them. Groups on a side chain read outwards from the residue. *: point of attachment. C20 diacid = O=C(O)CCCCCCCCCCCCCCCCCCC(=O)*; C18 diacid = O=C(O)CCCCCCCCCCCCCCCCC(=O)*; AEEA = NCCOCCOCC(=O)O

T1 sequence (O60896 24-148): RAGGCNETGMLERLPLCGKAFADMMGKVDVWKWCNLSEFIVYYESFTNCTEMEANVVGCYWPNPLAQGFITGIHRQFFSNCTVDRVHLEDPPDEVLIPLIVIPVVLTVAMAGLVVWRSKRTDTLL
T1 sequence (P30988 25-474): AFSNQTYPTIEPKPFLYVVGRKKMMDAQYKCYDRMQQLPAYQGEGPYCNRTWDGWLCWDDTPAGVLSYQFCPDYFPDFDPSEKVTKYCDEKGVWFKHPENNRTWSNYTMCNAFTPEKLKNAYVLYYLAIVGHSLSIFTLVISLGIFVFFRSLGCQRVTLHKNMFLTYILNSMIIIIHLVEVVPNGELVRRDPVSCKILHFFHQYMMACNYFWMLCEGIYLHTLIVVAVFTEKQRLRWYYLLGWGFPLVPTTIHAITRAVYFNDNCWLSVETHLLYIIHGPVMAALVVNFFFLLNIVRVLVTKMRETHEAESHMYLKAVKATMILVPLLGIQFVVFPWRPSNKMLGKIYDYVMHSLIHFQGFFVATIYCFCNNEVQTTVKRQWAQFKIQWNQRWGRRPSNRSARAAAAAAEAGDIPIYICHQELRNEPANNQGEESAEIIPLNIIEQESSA

For the compound `CC[C@H](C)[C@H](NC(=O)[C@@H]1CCCN1C(=O)CNC(=O)[C@H](Cc1ccccc1)NC(=O)[C@H](CC(N)=O)NC(=O)[C@H](CC(N)=O)NC(=O)[C@H](CO)NC(=O)[C@H](CO)NC(=O)[C@H](Cc1c[nH]cn1)NC(=O)[C@@H](NC(=O)[C@H](CC(C)C)NC(=O)[C@H](Cc1ccccc1)NC(=O)[C@H](CC(N)=O)NC(=O)[C@H](C)NC(=O)[C@H](CC(C)C)NC(=O)[C@H](CCCNC(=N)N)NC(=O)[C@H](CCC(N)=O)NC(=O)[C@@H](NC(=O)[C@H](C)NC(=O)[C@@H]1CSSC[C@H](NC(=O)[C@@H](N)CCCCN)C(=O)N[C@@H](CCCCNC(=O)CCCCCCCCCCCCCCCCC(=O)O)C(=O)N[C@@H]([C@@H](C)O)C(=O)N[C@@H](C)C(=O)N[C@@H]([C@@H](C)O)C(=O)N1)[C@@H](C)O)C(C)C)C(=O)N[C@@H](CC(C)C)C(=O)N1CCC[C@H]1C(=O)N1CCC[C@H]1C(=O)N[C@H](C(=O)N[C@@H](CC(N)=O)C(=O)N[C@H](C(=O)NCC(=O)N[C@@H](CO)C(=O)N[C@@H](CC(N)=O)C(=O)N[C@H](C(=O)N[C@@H](Cc1ccc(O)cc1)C(N)=O)[C@@H](C)O)C(C)C)[C@@H](C)O` [Example 2, N-epsilon3-(17-carboxyheptadecanoyl)-[Lys3]-pramlintide (1-37)] (H-KCK(C18 diacid)TATCATQRLANFLVHSSNNFGPILPPTNVGSNTY-NH2; disulfide 2-7; N-terminus and C-terminus assumed), the pEC50 under setting [1] was 10.30.

Turning to `CC[C@H](C)[C@H](NC(=O)[C@@H]1CCCN1C(=O)CNC(=O)[C@H](Cc1ccccc1)NC(=O)[C@H](CC(N)=O)NC(=O)[C@H](CC(N)=O)NC(=O)[C@H](CO)NC(=O)[C@H](CO)NC(=O)[C@H](Cc1c[nH]cn1)NC(=O)[C@@H](NC(=O)[C@H](CC(C)C)NC(=O)[C@H](Cc1ccccc1)NC(=O)[C@H](CC(N)=O)NC(=O)[C@H](C)NC(=O)[C@H](CC(C)C)NC(=O)[C@H](CCCNC(=N)N)NC(=O)[C@H](CCC(N)=O)NC(=O)[C@@H](NC(=O)[C@H](C)NC(=O)[C@@H]1CSSC[C@H](NC(=O)[C@@H](N)CCCCN)C(=O)N[C@@H](CCCCNC(=O)COCCOCCNC(=O)COCCOCCNC(=O)CCCCCCCCCCCCCCCCC(=O)O)C(=O)N[C@@H]([C@@H](C)O)C(=O)N[C@@H](C)C(=O)N[C@@H]([C@@H](C)O)C(=O)N1)[C@@H](C)O)C(C)C)C(=O)N[C@@H](CC(C)C)C(=O)N1CCC[C@H]1C(=O)N1CCC[C@H]1C(=O)N[C@H](C(=O)N[C@@H](CC(N)=O)C(=O)N[C@H](C(=O)NCC(=O)N[C@@H](CO)C(=O)N[C@@H](CC(N)=O)C(=O)N[C@H](C(=O)N[C@@H](Cc1ccc(O)cc1)C(N)=O)[C@@H](C)O)C(C)C)[C@@H](C)O` [Example 3, N-epsilon3-(2-{2-[2-(2-{2-[2-(17-carboxyheptadecanoylamino)ethoxy]ethoxy}acetylamino)ethoxy]ethoxy}acetyl)-[Lys3]-pramlintide (1-37)] (H-KCK([AEEA-AEEA-C18 diacid])TATCATQRLANFLVHSSNNFGPILPPTNVGSNTY-NH2; disulfide 2-7), the pEC50 under setting [1] is 10.00.

In the case of `CC[C@H](C)[C@H](NC(=O)[C@@H]1CCCN1C(=O)CNC(=O)[C@H](Cc1ccccc1)NC(=O)[C@H](CC(N)=O)NC(=O)[C@H](CC(N)=O)NC(=O)[C@H](CO)NC(=O)[C@H](CO)NC(=O)[C@H](Cc1c[nH]cn1)NC(=O)[C@@H](NC(=O)[C@H](CC(C)C)NC(=O)[C@H](Cc1ccccc1)NC(=O)[C@H](CC(N)=O)NC(=O)[C@H](C)NC(=O)[C@H](CC(C)C)NC(=O)[C@H](CCCNC(=N)N)NC(=O)[C@H](CCC(N)=O)NC(=O)[C@@H](NC(=O)[C@H](C)NC(=O)[C@@H]1CSSC[C@H](NC(=O)[C@@H](N)CCCCN)C(=O)N[C@@H](CC(N)=O)C(=O)N[C@@H]([C@@H](C)O)C(=O)N[C@@H](C)C(=O)N[C@@H]([C@@H](C)O)C(=O)N1)[C@@H](C)O)C(C)C)C(=O)N[C@@H](CC(C)C)C(=O)N1CCC[C@H]1C(=O)N[C@@H](CCCCNC(=O)COCCOCCNC(=O)COCCOCCNC(=O)CCCCCCCCCCCCCCCCCCC(=O)O)C(=O)N[C@H](C(=O)N[C@@H](CC(N)=O)C(=O)N[C@H](C(=O)NCC(=O)N[C@@H](CO)C(=O)N[C@@H](CC(N)=O)C(=O)N[C@H](C(=O)N[C@@H](Cc1ccc(O)cc1)C(N)=O)[C@@H](C)O)C(C)C)[C@@H](C)O` [Example 6, N-epsilon29-(2-{2-[2-(2-{2-[2-(19-carboxynonadecanoylamino)ethoxy]ethoxy}acetylamino)ethoxy]ethoxy}acetyl)-[Lys29]-pramlintide (1-37)] (H-KCNTATCATQRLANFLVHSSNNFGPILPK([AEEA-AEEA-C20 diacid])TNVGSNTY-NH2; disulfide 2-7; N-terminus and C-terminus assumed), the pEC50 under setting [1] was 9.70.

For the compound `CC[C@H](C)[C@H](NC(=O)[C@@H]1CCCN1C(=O)CNC(=O)[C@H](Cc1ccccc1)NC(=O)[C@H](CC(N)=O)NC(=O)[C@H](CCCCNC(=O)COCCOCCNC(=O)COCCOCCNC(=O)CCCCCCCCCCCCCCCCCCC(=O)O)NC(=O)[C@H](CO)NC(=O)[C@H](CO)NC(=O)[C@H](Cc1c[nH]cn1)NC(=O)[C@@H](NC(=O)[C@H](CC(C)C)NC(=O)[C@H](Cc1ccccc1)NC(=O)[C@H](CC(N)=O)NC(=O)[C@H](C)NC(=O)[C@H](CC(C)C)NC(=O)[C@H](CCCNC(=N)N)NC(=O)[C@H](CCC(N)=O)NC(=O)[C@@H](NC(=O)[C@H](C)NC(=O)[C@@H]1CSSC[C@H](NC(=O)[C@@H](N)CCCCN)C(=O)N[C@@H](CC(N)=O)C(=O)N[C@@H]([C@@H](C)O)C(=O)N[C@@H](C)C(=O)N[C@@H]([C@@H](C)O)C(=O)N1)[C@@H](C)O)C(C)C)C(=O)N[C@@H](CC(C)C)C(=O)N1CCC[C@H]1C(=O)N1CCC[C@H]1C(=O)N[C@H](C(=O)N[C@@H](CC(N)=O)C(=O)N[C@H](C(=O)NCC(=O)N[C@@H](CO)C(=O)N[C@@H](CC(N)=O)C(=O)N[C@H](C(=O)N[C@@H](Cc1ccc(O)cc1)C(N)=O)[C@@H](C)O)C(C)C)[C@@H](C)O` [Example 7, N-epsilon2′-(2-{2-[2-(2-{2-[2-(19-carboxynonadecanoylamino)ethoxy]ethoxy}acetylamino)ethoxy]ethoxy}acetyl)-[Lys21]-pramlintide (1-37)] (H-KCNTATCATQRLANFLVHSSK([AEEA-AEEA-C20 diacid])NFGPILPPTNVGSNTY-NH2; disulfide 2-7; N-terminus and C-terminus assumed), the pEC50 under setting [1] was 10.00.

Take `CC[C@H](C)[C@H](NC(=O)[C@@H]1CCCN1C(=O)CNC(=O)[C@H](Cc1ccccc1)NC(=O)[C@H](CC(N)=O)NC(=O)[C@H](CC(N)=O)NC(=O)[C@H](CO)NC(=O)[C@H](CO)NC(=O)[C@H](Cc1c[nH]cn1)NC(=O)[C@H](CCCCNC(=O)COCCOCCNC(=O)COCCOCCNC(=O)CCCCCCCCCCCCCCCCCCC(=O)O)NC(=O)[C@H](CC(C)C)NC(=O)[C@H](Cc1ccccc1)NC(=O)[C@H](CC(N)=O)NC(=O)[C@H](C)NC(=O)[C@H](CC(C)C)NC(=O)[C@H](CCCNC(=N)N)NC(=O)[C@H](CCC(N)=O)NC(=O)[C@@H](NC(=O)[C@H](C)NC(=O)[C@@H]1CSSC[C@H](NC(=O)[C@@H](N)CCCCN)C(=O)N[C@@H](CC(N)=O)C(=O)N[C@@H]([C@@H](C)O)C(=O)N[C@@H](C)C(=O)N[C@@H]([C@@H](C)O)C(=O)N1)[C@@H](C)O)C(=O)N[C@@H](CC(C)C)C(=O)N1CCC[C@H]1C(=O)N1CCC[C@H]1C(=O)N[C@H](C(=O)N[C@@H](CC(N)=O)C(=O)N[C@H](C(=O)NCC(=O)N[C@@H](CO)C(=O)N[C@@H](CC(N)=O)C(=O)N[C@H](C(=O)N[C@@H](Cc1ccc(O)cc1)C(N)=O)[C@@H](C)O)C(C)C)[C@@H](C)O` [Example 8, N-epsilon17-(2-{2-[2-(2-{2-[2-(19-carboxynonadecanoylamino)ethoxy]ethoxy}acetylamino)ethoxy]ethoxy}acetyl)-[Lys17]-pramlintide (1-37)] (H-KCNTATCATQRLANFLK([AEEA-AEEA-C20 diacid])HSSNNFGPILPPTNVGSNTY-NH2; disulfide 2-7; N-terminus assumed): the pEC50 is 10.00.
